Laboratory results from ChEMBL document CHEMBL4400526, “Design, synthesis and anti-bacterial studies of piperazine derivatives against drug resistant bacteria” (2019).
≈ marks a conversion by molar mass, not a printed value. Calls of active or inactive are those of the source. The calls are words filed in the database; no cut-off is given here.

Tests used:
Assay type in all cases: functional
Escherichia coli [1] = experiment: Antibacterial activity against Escherichia coli ATCC 25922 measured after overnight incubation
Staphylococcus aureus [2] = experiment: Antibacterial activity against Staphylococcus aureus ATCC 6538 measured after overnight incubation
Bacillus spizizenii = experiment: Antibacterial activity against Bacillus subtilis ATCC 6633 measured after overnight incubation
Pseudomonas aeruginosa [3] = experiment: Antibacterial activity against Pseudomonas aeruginosa ATCC 15442 measured after overnight incubation
Klebsiella pneumoniae = experiment: Antibacterial activity against Klebsiella pneumoniae ATCC 1705 measured after overnight incubation; conditions: ATCC BAA-1705
Pseudomonas aeruginosa [4] = experiment: Antibacterial activity against Pseudomonas aeruginosa clinical isolates measured after overnight incubation
Escherichia coli [5] = experiment: Antibacterial activity against Escherichia coli clinical isolates measured after overnight incubation
Staphylococcus aureus [6] = experiment: Antibacterial activity against methicillin-resistant Staphylococcus aureus clinical isolates measured after overnight incubation
Streptococcus pyogenes = experiment: Antibacterial activity against Streptococcus hemolyticus clinical isolates measured after overnight incubation
Escherichia coli [7] = experiment: Antibacterial activity against Escherichia coli
[8] = system: Staphylococcus epidermidis; experiment: Antibacterial activity against Staphylococcus epidermidis
Staphylococcus aureus [9] = experiment: Antibacterial activity against Staphylococcus aureus

Row | SMILES | MIC (Escherichia coli [1]) | MIC (Staphylococcus aureus [2]) | MIC (Bacillus spizizenii) | MIC (Pseudomonas aeruginosa [3]) | MIC (Klebsiella pneumoniae) | MIC (Escherichia coli [1]; read-out: MIC) [µM] | MIC (Pseudomonas aeruginosa [4]) | MIC (Escherichia coli [5]) | MIC (Staphylococcus aureus [6]) [µM] | MIC (Streptococcus pyogenes) | MIC (Pseudomonas aeruginosa [3]; read-out: MIC) [µM] | MIC50 (Escherichia coli [7]) [µg/mL] | MIC50 [8] [µg/mL] | MIC50 (Staphylococcus aureus [9]) [µg/mL]
1 | Nc1ccc(S(N)(=O)=O)cc1 | inactive | inactive | inactive | inactive |  |  |  |  |  |  |  |  |  | 
2 | CC[C@H]1OC(=O)[C@H](C)[C@@H](O[C@H]2C[C@@](C)(OC)[C@@H](O)[C@H](C)O2)[C@H](C)[C@@H](O[C@@H]2O[C@H](C)C[C@H](N(C)C)[C@H]2O)[C@](C)(O)C[C@@H](C)/C(=N\OCOCCOC)[C@H](C)[C@@H](O)[C@]1(C)O [ROXITHROMYCIN] |  | 0.039 µM |  |  |  |  |  |  |  |  |  |  |  | 
3 | O=C(NNCN1CCNCC1)c1ccncc1 | inactive | inactive | inactive | inactive | inactive |  |  |  |  |  |  |  |  | 
4 | NS(=O)(=O)c1ccc(NCN2CCNCC2)cc1 | inactive | inactive | inactive | inactive | inactive |  |  |  |  |  |  |  |  | 
5 | NNC(=O)c1ccncc1 | inactive | inactive | inactive | inactive |  |  |  |  |  |  |  |  |  | 
6 | O=C(O)c1ccc(NCN2CCN(c3cc4c(cc3F)c(=O)c(C(=O)O)cn4C3CC3)CC2)cc1 |  | 16.6 µM | 16.6 µM |  | 16.6 µM (≈ 7.98 µg/mL) | 8.3 (≈ 3.99 µg/mL) | 8.3 µM | 8.3 µM | 66.5 (≈ 32 µg/mL) | 8.3 µM | 8.3 (≈ 3.99 µg/mL) |  |  | 
7 | NS(=O)(=O)c1ccc(NCCN2CCN(c3cc4c(cc3F)c(=O)c(C(=O)O)cn4C3CC3)CC2)cc1 |  | 3.7 µM | 3.7 µM |  | 7.5 µM (≈ 3.97 µg/mL) | 7.5 (≈ 3.97 µg/mL) | 7.5 µM | 7.5 µM | 3.7 (≈ 1.96 µg/mL) | 3.7 µM | 7.5 (≈ 3.97 µg/mL) |  |  | 
8 | O=C(O)CC1(CNCN2CCNCC2)CCCCC1 |  | 119 µM | 119 µM |  | 238 µM (≈ 64 µg/mL) | 238 (≈ 64 µg/mL) |  |  |  |  | 238 (≈ 64 µg/mL) |  |  | 
9 | O=C(O)c1cn(C2CC2)c2cc(N3CCNCC3)c(F)cc2c1=O [CIPROFLOXACIN] |  | 8 µg/mL | 8 µg/mL |  |  |  |  |  |  |  |  |  |  | 
10 | NS(=O)(=O)c1ccc(NCN2CCN(c3cc4c(cc3F)c(=O)c(C(=O)O)cn4C3CC3)CC2)cc1 |  | 0.9 µM | 0.9 µM |  | 1.9 µM (≈ 0.98 µg/mL) | 1.9 (≈ 0.98 µg/mL) | 7.7 µM | 7.7 µM | 7.7 (≈ 3.97 µg/mL) | 7.7 µM | 1.9 (≈ 0.98 µg/mL) |  |  | 
11 | NCC1(CC(=O)O)CCCCC1 | inactive | inactive | inactive | inactive |  |  |  |  |  |  |  |  |  | 
12 | Nc1ccc(C(=O)O)cc1 | inactive | inactive | inactive | inactive |  |  |  |  |  |  |  |  |  | 
13 | O=C(O)c1ccc(NCCN2CCN(c3cc4c(cc3F)c(=O)c(C(=O)O)cn4C3CC3)CC2)cc1 |  | 2 µM | 2 µM |  | 2 µM (≈ 0.989 µg/mL) | 1 (≈ 0.495 µg/mL) | 1 µM | 1 µM | 16.1 (≈ 7.96 µg/mL) |  | 1 (≈ 0.495 µg/mL) |  |  | 
14 | O=C(NNCCN1CCN(c2cc3c(cc2F)c(=O)c(C(=O)O)cn3C2CC2)CC1)c1ccncc1 |  | 1 µM | 1 µM |  | 4 µM (≈ 1.98 µg/mL) | 4 (≈ 1.98 µg/mL) | 8 µM | 8 µM | 4 (≈ 1.98 µg/mL) | 8 µM | 4 (≈ 1.98 µg/mL) |  |  | 
15 | O=C(O)c1ccc(NCN2CCNCC2)cc1 | 1090 µM (≈ 256 µg/mL) | 272 µM | 272 µM | 1090 µM (≈ 256 µg/mL) | 1090 µM (≈ 256 µg/mL) |  |  |  |  |  |  |  |  | 
16 | O=C(O)CC1(CNCN2CCN(c3cc4c(cc3F)c(=O)c(C(=O)O)cn4C3CC3)CC2)CCCCC1 |  |  | 62.1 µM |  | 15.5 µM (≈ 7.98 µg/mL) | 15.5 (≈ 7.98 µg/mL) | 7.7 µM | 7.7 µM |  | 62.1 µM | 15.5 (≈ 7.98 µg/mL) |  |  | 
17 | O=C(NNCN1CCN(c2cc3c(cc2F)c(=O)c(C(=O)O)cn3C2CC2)CC1)c1ccncc1 |  | 4.1 µM | 7.7 µM |  | 7.7 µM (≈ 3.7 µg/mL) | 7.7 (≈ 3.7 µg/mL) | 33.2 µM | 33.2 µM | 2 (≈ 0.961 µg/mL) | 8.3 µM | 7.7 (≈ 3.7 µg/mL) |  |  | 
18 | O=C(O)CC1(CNCCN2CCN(c3cc4c(cc3F)c(=O)c(C(=O)O)cn4C3CC3)CC2)CCCCC1 |  | 30.2 µM | 30.2 µM |  | 7.5 µM (≈ 3.96 µg/mL) | 7.5 (≈ 3.96 µg/mL) | 3.7 µM | 3.7 µM | 30.2 (≈ 16 µg/mL) |  | 15.1 (≈ 7.98 µg/mL) |  |  | 
19 | COc1cc(Cc2cnc(N)nc2N)cc(OC)c1OCCN1CCN(c2cc3c(cc2F)c(=O)c(C(=O)O)cn3C2CC2)CC1 |  |  |  |  |  |  |  |  |  |  |  | 1 (≈ 1.58 µM) | 0.5 (≈ 0.789 µM) | 0.5 (≈ 0.789 µM)
20 | COc1nc(NNC(=O)c2ccncc2)nc(N2CCNCC2)n1 |  | 49.2 µM | 49.2 µM |  | 197 µM (≈ 65 µg/mL) | 98.4 (≈ 32.5 µg/mL) |  |  |  |  | 98.4 (≈ 32.5 µg/mL) |  |  | 
21 | NS(=O)(=O)c1ccc(NC(=O)CC2(CNCN3CCN(c4cc5c(cc4F)c(=O)c(C(=O)O)cn5C4CC4)CC3)CCCCC2)cc1 |  | 1.4 µM | 1.4 µM |  | 0.7 µM (≈ 0.468 µg/mL) | 0.7 (≈ 0.468 µg/mL) | 0.74 µM | 0.74 µM | 0.74 (≈ 0.495 µg/mL) |  | 0.7 (≈ 0.468 µg/mL) |  |  | 
22 | C=CC1=C(C(=O)O)N2C(=O)[C@@H](NC(=O)/C(=N\OCC(=O)O)c3csc(N)n3)[C@H]2SC1 [CEFIXIME] |  |  | 0.06 µM |  |  | 0.06 (≈ 0.0272 µg/mL) | 0.5 µg/mL | 0.75 µg/mL |  | 0.25 µg/mL | 0.06 (≈ 0.0272 µg/mL) |  |  | 
